≈ marks a conversion by molar mass, not a printed value.
Legend:
Type in all cases: cell-based
[1] = test system: Streptococcus pyogenes Cook; assay: Antibacterial activity, agar-dilution MIC, organism No. 4; conditions: Streptococcus pyogenes; Organism No. 4, bouillon-agar; read-out: Minimum Inhibitory Concentration
In short: (§1)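 Agar dilution, bouillon-agar plates; MIC reported in μg/ml of medium.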

[2] = test system: Pseudomonas aeruginosa NCTC 10490; assay: Antibacterial activity, agar-dilution MIC, organism No. 16; conditions: Pseudomonas aeruginosa, NCTC10490; Organism No. 16, bouillon-agar; read-out: Minimum Inhibitory Concentration
In short: as §1

[3] = test system: Klebsiella pneumoniae PCI-602; assay: Antibacterial activity, agar-dilution MIC, organism No. 7; conditions: Klebsiella pneumoniae, PCI602; Organism No. 7, bouillon-agar; read-out: Minimum Inhibitory Concentration
In short: as §1

[4] = test system: Staphylococcus aureus FDA 209PJc-1; assay: Antibacterial activity, agar-dilution MIC, organism No. 1; conditions: Staphylococcus aureus, FDA209PJC1; Organism No. 1, bouillon-agar; read-out: Minimum Inhibitory Concentration
In short: as §1

Enterobacter cloacae 963 = assay: Antibacterial activity, agar-dilution MIC, organism No. 24; conditions: Enterobacter cloacae, 963; Organism No. 24, bouillon-agar; read-out: Minimum Inhibitory Concentration
In short: as §1

[5] = test system: Pseudomonas aeruginosa IFO 3445; assay: Antibacterial activity, agar-dilution MIC, organism No. 15; conditions: Pseudomonas aeruginosa, IFO3445; Organism No. 15, bouillon-agar; read-out: Minimum Inhibitory Concentration
In short: as §1

[6] = test system: Aspergillus niger IFO 6342; assay: Antifungal activity, agar-dilution MIC, organism No. 30; conditions: Aspergillus niger, IFO6342; Organism No. 30, bouillon-agar; read-out: Minimum Inhibitory Concentration
In short: as §1

[7] = test system: Serratia marcescens IAM 1184; assay: Antibacterial activity, agar-dilution MIC, organism No. 13; conditions: Serratia marcescens, IAM1184; Organism No. 13, bouillon-agar; read-out: Minimum Inhibitory Concentration
Text: Agar-dilution method was used for determination of the antibacterial activity and antifungal activity while using bouillon-agar culture medium, and the minimum inhibitory concentration of the specimen was expressed by μg/ml of the culture medium.

[8] = test system: Pseudomonas aeruginosa PAO 1; assay: Antibacterial activity, agar-dilution MIC, organism No. 17; conditions: Pseudomonas aeruginosa, PAO1; Organism No. 17, bouillon-agar; read-out: Minimum Inhibitory Concentration
In short: as §1

[9] = test system: Escherichia coli K12 C600 IAM 1264; assay: Antibacterial activity, agar-dilution MIC, organism No. 6; conditions: Escherichia coli, IAM1264; Organism No. 6, bouillon-agar; read-out: Minimum Inhibitory Concentration
In short: as §1

[10] = test system: Staphylococcus aureus Terajima; assay: Antibacterial activity, agar-dilution MIC, organism No. 2; conditions: Staphylococcus aureus; Organism No. 2, bouillon-agar; read-out: Minimum Inhibitory Concentration
In short: as §1

[11] = test system: Candida albicans IAM 4905; assay: Antifungal activity, agar-dilution MIC, organism No. 29; conditions: Candida albicans, IAM4905; Organism No. 29, bouillon-agar; read-out: Minimum Inhibitory Concentration
In short: as §1

[12] = test system: Salmonella enteritidis G 14; assay: Antibacterial activity, agar-dilution MIC, organism No. 12; conditions: Salmonella enterica, ENTERITIDIS; Organism No. 12, bouillon-agar; read-out: Minimum Inhibitory Concentration
In short: as §1

[13] = test system: Staphylococcus aureus MS 353; assay: Antibacterial activity, agar-dilution MIC, organism No. 3; conditions: Staphylococcus aureus, MS353; Organism No. 3, bouillon-agar; read-out: Minimum Inhibitory Concentration
In short: as §1

Proteus vulgaris HX-19 = assay: Antibacterial activity, agar-dilution MIC, organism No. 21; conditions: Proteus vulgaris, HX19; Organism No. 21, bouillon-agar; read-out: Minimum Inhibitory Concentration
In short: as §1

[14] = test system: Bacillus subtilis ATCC 6633; assay: Antibacterial activity, agar-dilution MIC, organism No. 14; conditions: Bacillus subtilis, ATCC6633; Organism No. 14, bouillon-agar; read-out: Minimum Inhibitory Concentration
In short: as §1

[15] = test system: Salmonella paratyphi-A 1015; assay: Antibacterial activity, agar-dilution MIC, organism No. 10; conditions: Salmonella enterica, PARATYPHI, read-out: Minimum Inhibitory Concentration
In short: as §1

[16] = test system: Escherichia coli NIHJ-JC-2; assay: Antibacterial activity, agar-dilution MIC, organism No. 5; conditions: Escherichia coli, NIHJJC2; Organism No. 5, bouillon-agar; read-out: Minimum Inhibitory Concentration
In short: as §1

[17] = test system: Micrococcus luteus ATCC 9341; assay: Antibacterial activity, agar-dilution MIC, organism No. 25; conditions: Micrococcus luteus, ATCC9341; Organism No. 25, bouillon-agar; read-out: Minimum Inhibitory Concentration
In short: as §1

[18] = test system: Proteus mirabilis IFO 3849; assay: Antibacterial activity, agar-dilution MIC, organism No. 19; conditions: Proteus mirabilis, IFO3849; Organism No. 19, bouillon-agar; read-out: Minimum Inhibitory Concentration
In short: as §1

[19] = test system: Salmonella shottmuelleri 8006; assay: Antibacterial activity, agar-dilution MIC, organism No. 11; conditions: Salmonella, 8006; Organism No. 11, bouillon-agar; read-out: Minimum Inhibitory Concentration
In short: as §1

[20] = test system: Salmonella typhimurium IID 971; assay: Antibacterial activity, agar-dilution MIC, organism No. 8; conditions: Salmonella enterica; Organism No. 8, bouillon-agar; read-out: Minimum Inhibitory Concentration
In short: as §1

[21] = test system: Enterobacter aerogenes ATCC 13048; assay: Antibacterial activity, agar-dilution MIC, organism No. 23; conditions: Klebsiella aerogenes, ATCC13048; Organism No. 23, bouillon-agar; read-out: Minimum Inhibitory Concentration
In short: as §1

Salmonella typhi 901 = assay: Antibacterial activity, agar-dilution MIC, organism No. 9; conditions: Salmonella enterica, TYPHI, read-out: Minimum Inhibitory Concentration
In short: as §1

[22] = test system: Proteus morganii IFO 3848; assay: Antibacterial activity, agar-dilution MIC, organism No. 18; conditions: Morganella morganii, IFO3848; Organism No. 18, bouillon-agar; read-out: Minimum Inhibitory Concentration
In short: as §1

Proteus vulgaris OX-19 = assay: Antibacterial activity, agar-dilution MIC, organism No. 20; conditions: Proteus vulgaris, OX19; Organism No. 20, bouillon-agar; read-out: Minimum Inhibitory Concentration
In short: as §1

[23] = test system: Streptococcus pyogenes IFO 3340; assay: Antibacterial activity, agar-dilution MIC, organism No. 26; conditions: Streptococcus pyogenes, IFO3340; Organism No. 26, bouillon-agar; read-out: Minimum Inhibitory Concentration
In short: as §1

[24] = test system: Proteus rettgeri IFO 3850; assay: Antibacterial activity, agar-dilution MIC, organism No. 22; conditions: Providencia rettgeri, IFO3850; Organism No. 22, bouillon-agar; read-out: Minimum Inhibitory Concentration
In short: as §1

| SMILES | MIC [1] [µg/mL] | MIC [2] [µg/mL] | MIC [3] [µg/mL] | MIC [4] [µg/mL] | MIC (Enterobacter cloacae 963) [µg/mL] | MIC [5] [µg/mL] | MIC [6] [µg/mL] | MIC [7] [µg/mL] | MIC [8] [µg/mL] | MIC [9] [µg/mL] | MIC [10] [µg/mL] | MIC [11] [µg/mL] | MIC [12] [µg/mL] | MIC [13] [µg/mL] | MIC (Proteus vulgaris HX-19) [µg/mL] | MIC [14] [µg/mL] | MIC [15] [µg/mL] | MIC [16] [µg/mL] | MIC [17] [µg/mL] | MIC [18] [µg/mL] | also measured |
| --- | --- | --- | --- | --- | --- | --- | --- | --- | --- | --- | --- | --- | --- | --- | --- | --- | --- | --- | --- | --- | --- |
| [C-]#[N+]C12CC3(/C=C/C(=O)Nc4ccc(OCCC)cc4)OC3C1O2 (centres unmarked) [compound 73] | 100 (≈ 306 µM) | > 200 | 1.56 (≈ 4.78 µM) | 0.78 (≈ 2.39 µM) | > 200 | > 200 | 12.5 (≈ 38.3 µM) | > 200 | > 200 | > 200 | 1.56 (≈ 4.78 µM) | 12.5 (≈ 38.3 µM) | > 200 | 1.56 (≈ 4.78 µM) | 0.78 (≈ 2.39 µM) | 12.5 (≈ 38.3 µM) | 0.39 (≈ 1.2 µM) | > 200 | 1.56 (≈ 4.78 µM) | > 200 | MIC [19]: 1.56 µg/mL (≈ 4.78 µM); MIC [20]: > 200 µg/mL; MIC [21]: > 200 µg/mL; MIC (Salmonella typhi 901): 50 µg/mL (≈ 153 µM); MIC [22]: 12.5 µg/mL (≈ 38.3 µM); MIC (Proteus vulgaris OX-19): 1.56 µg/mL (≈ 4.78 µM); MIC [23]: 1.56 µg/mL (≈ 4.78 µM); MIC [24]: > 200 µg/mL |
| [C-]#[N+]C12CC3(/C=C/C(=O)Nc4ccc(OC(C)C)cc4)OC3C1O2 (centres unmarked) [compound 74] | 100 (≈ 306 µM) | > 200 | 1.56 (≈ 4.78 µM) | 0.78 (≈ 2.39 µM) | > 200 | > 200 | 12.5 (≈ 38.3 µM) | > 200 | > 200 | > 200 | 6.25 (≈ 19.2 µM) | 12.5 (≈ 38.3 µM) | 200 (≈ 613 µM) | 1.56 (≈ 4.78 µM) | 1.56 (≈ 4.78 µM) | 6.25 (≈ 19.2 µM) | 1.56 (≈ 4.78 µM) | > 200 | 12.5 (≈ 38.3 µM) | > 200 | MIC [19]: 3.13 µg/mL (≈ 9.59 µM); MIC [20]: > 200 µg/mL; MIC [21]: > 200 µg/mL; MIC (Salmonella typhi 901): 12.5 µg/mL (≈ 38.3 µM); MIC [22]: 6.25 µg/mL (≈ 19.2 µM); MIC (Proteus vulgaris OX-19): 1.56 µg/mL (≈ 4.78 µM); MIC [23]: 3.13 µg/mL (≈ 9.59 µM); MIC [24]: 100 µg/mL (≈ 306 µM) |

— patent publication US4684664A, “Derivatives of β-(4-isocyano-1,2,3,4-diepoxycyclopentyl) acrylic acid” (Kureha Kagaku Kogyo Kabushiki Kaisha, priority 1984, dated 1987)
